Reference: PMC6193938, “Characterization of a novel AICARFT inhibitor which potently elevates ZMP and has anti-tumor activity in murine models” (Scientific Reports, 2018)
Where two headings read alike, the source gives them in different places.

Columns and labels:
NEK2 = target: T1, NEK2 (Homo sapiens, UniProt P51955); experiment: CEREP protein kinase assay; assay type: biochemical
T1 construct: purchased CEREP Panlabs (Eurofins)
T1 sequence (P51955 1-445): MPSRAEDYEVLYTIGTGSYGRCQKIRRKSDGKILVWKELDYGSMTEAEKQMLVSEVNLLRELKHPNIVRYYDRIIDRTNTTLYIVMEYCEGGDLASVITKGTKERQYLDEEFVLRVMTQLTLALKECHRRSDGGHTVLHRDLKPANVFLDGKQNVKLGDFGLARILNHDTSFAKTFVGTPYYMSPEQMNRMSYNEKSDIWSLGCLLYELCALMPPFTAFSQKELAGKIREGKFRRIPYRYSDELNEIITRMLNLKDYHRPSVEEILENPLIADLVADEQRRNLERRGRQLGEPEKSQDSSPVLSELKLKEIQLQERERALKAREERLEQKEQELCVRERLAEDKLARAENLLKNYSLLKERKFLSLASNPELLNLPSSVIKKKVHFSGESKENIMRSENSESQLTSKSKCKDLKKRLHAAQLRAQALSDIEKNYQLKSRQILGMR

RON = target: T2, RON (Homo sapiens, UniProt Q04912); experiment: CEREP protein kinase assay; assay type: biochemical
T2 construct: purchased CEREP Panlabs (Eurofins)

NCI-H460 (lung) = experiment: Low folate & high folate in vitro proliferation assay (Alamar Blue); assay type: cell-based, human; details: for GI50: Homo sapiens
Experimental: Cells lines were acquired from cell banks, see supplemental material, grown using the cell banks recommended culture conditions (Supplemental Table 3). In some experiments noted “low folate” the cells were washed and grown in folate free RPMI-1640 media (Gibco #27016-021) supplemented with 5 ml 1 M Hepes, 5 ml 100 mM Na pyruvate, 2.5 mg/ml glucose and 10% defined FBS (Hyclone #SH30070) per 500 mL media for 5–7 days to deplete intracellular folate levels prior to the start of the experiment. Where noted, cells were maintained in complete “high folate” RPMI-1640 media (ATCC #30-2001) with 10% defined FBS to contrast with the low folate conditions.
Cells were cultured using recommended culture conditions unless noted otherwise (Supplemental Table 3). Cells were plated, dosed with compound and incubated at 37 °C for approximately 2 doubling times as determined for each cell line. Cell Titer Glo (Promega) assay was used to measure proliferation according to manufacturer’s recommendations by measuring luminescence with Flexstation3 (Molecular Devices) with 500 ms integration time. […] The % response was fit to a four-parameter logistic equation using ACTIVITYBASE 4.0 to determine the absolute IC50 values.
For a limited number of cell lines, compound dosing was performed under high or low folate conditions with cell viability being determined with Alamar Blue rather than an ATP dependent assay. Cells were plated and treated as described above. Proliferation was measured using Alamar Blue Cell Viability Reagent (Invitrogen), and read after approximately 1.5–4 hours incubation at 37 °C on the Envision plate reader (Perkin Elmer) with excitation at 570 nm and emission at 585 nm. The % inhibition for each sample was calculated and fit as described above.

RSK1 = target: T3, RSK1 (Homo sapiens, UniProt Q15418); experiment: CEREP protein kinase assay; assay type: biochemical
T3 construct: purchased CEREP Panlabs (Eurofins)

IRAK1 = target: T4, IRAK1 (Homo sapiens, UniProt P51617); experiment: CEREP protein kinase assay; assay type: biochemical
T4 construct: purchased CEREP Panlabs (Eurofins)

AMPKA = experiment: CEREP protein kinase assay; assay type: biochemical
AKT3 = target: T5, AKT3 (Homo sapiens, UniProt Q9Y243); experiment: CEREP protein kinase assay; assay type: biochemical
T5 construct: purchased CEREP Panlabs (Eurofins)

JNK3 = target: T6, JNK3 (Homo sapiens, UniProt P53779); experiment: CEREP protein kinase assay; assay type: biochemical
T6 construct: purchased CEREP Panlabs (Eurofins)

[1] = tested on: P70S6K T389 phosphorylation in MDA-MB-231met2 tumors; experiment: Western analysis of tumors; assay type: in vivo, mouse; details: 30 and 60 mg/kg BIDx22 PO
Experimental: (§1) The levels of total AMPKα and P70S6K are also shown. […] The levels of total AMPKα are also shown. […] Full images and the croppings used in this figure are shown in Supplemental Figures S14–S21.
(§2) Antibodies were purchased as follows: pAMPK Thr172 (Cell Signaling #2535), p-p70S6 Thr389 (Cell Signaling #9205), total p70S6 (Cell Signaling #2708), total AMPKα (Cell Signaling #2793) and Actin (Sigma #A5441). Frozen tumor samples were lysed with 500 µL ice cold lysis buffer plus Halt protease inhibitor (ThermoFisher #78430) using a Power Gen 125 tissue grinder (Fisher Scientific). Western blots were run as described in the supplemental material.
(§3) For the in vivo study with MDA-MB-231met2 (Figure 6A) 40 ug of total protein was resolved on a 10% Tris HCl Criterion XT precast gel (BioRad) at 100 V for 90 minutes. Transfer electrophoresed proteins to a 0.2 µm nitrocellulose membrane using Trans Blot Turbo System (BioRad). Block membranes for 1 hr at RT in 5% skim milk. Probe overnight 4°C for primary antibodies. Blots were washed 3-5 min in 20 mL TBS-0.1% Tween-20. Apply appropriate secondary antibody for 1-3 hours RT. Wash blots 3 x 5 min in 20 mL TBS-0.1% Tween20 and develop signal using Super Signal Western Femto kit (Thermo) on Image Reader LAS-4000 (Fuji Film Life Science).

[2] = tested on: AMPK T172 phosphorylation in MDA-MB-231met2 tumors; experiment: Western analysis of tumors; assay type: in vivo, mouse; details: 30 and 60 mg/kg BIDx22 PO
Experimental: as §1, §2, §3

T3 sequence (Q15418 whole entry): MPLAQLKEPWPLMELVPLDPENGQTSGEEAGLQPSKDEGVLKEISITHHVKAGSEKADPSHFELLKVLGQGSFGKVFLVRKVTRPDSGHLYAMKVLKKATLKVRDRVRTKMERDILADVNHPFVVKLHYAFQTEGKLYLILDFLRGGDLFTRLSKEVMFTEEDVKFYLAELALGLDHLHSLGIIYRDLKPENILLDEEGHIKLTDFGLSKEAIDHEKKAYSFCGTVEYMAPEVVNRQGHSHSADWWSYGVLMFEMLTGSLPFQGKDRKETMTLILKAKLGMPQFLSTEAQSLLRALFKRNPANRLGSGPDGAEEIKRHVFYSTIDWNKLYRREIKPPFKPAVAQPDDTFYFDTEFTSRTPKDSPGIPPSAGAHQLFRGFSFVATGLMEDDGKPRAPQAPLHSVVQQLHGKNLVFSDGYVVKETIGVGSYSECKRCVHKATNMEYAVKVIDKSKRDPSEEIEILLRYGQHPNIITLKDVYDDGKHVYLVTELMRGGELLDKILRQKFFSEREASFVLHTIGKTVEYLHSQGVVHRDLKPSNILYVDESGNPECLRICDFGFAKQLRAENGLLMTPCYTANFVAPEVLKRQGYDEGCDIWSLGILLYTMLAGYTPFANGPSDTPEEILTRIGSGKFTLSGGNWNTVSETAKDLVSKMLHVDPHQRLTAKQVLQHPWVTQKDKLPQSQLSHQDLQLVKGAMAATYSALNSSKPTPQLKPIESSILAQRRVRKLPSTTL
T4 sequence (P51617 whole entry): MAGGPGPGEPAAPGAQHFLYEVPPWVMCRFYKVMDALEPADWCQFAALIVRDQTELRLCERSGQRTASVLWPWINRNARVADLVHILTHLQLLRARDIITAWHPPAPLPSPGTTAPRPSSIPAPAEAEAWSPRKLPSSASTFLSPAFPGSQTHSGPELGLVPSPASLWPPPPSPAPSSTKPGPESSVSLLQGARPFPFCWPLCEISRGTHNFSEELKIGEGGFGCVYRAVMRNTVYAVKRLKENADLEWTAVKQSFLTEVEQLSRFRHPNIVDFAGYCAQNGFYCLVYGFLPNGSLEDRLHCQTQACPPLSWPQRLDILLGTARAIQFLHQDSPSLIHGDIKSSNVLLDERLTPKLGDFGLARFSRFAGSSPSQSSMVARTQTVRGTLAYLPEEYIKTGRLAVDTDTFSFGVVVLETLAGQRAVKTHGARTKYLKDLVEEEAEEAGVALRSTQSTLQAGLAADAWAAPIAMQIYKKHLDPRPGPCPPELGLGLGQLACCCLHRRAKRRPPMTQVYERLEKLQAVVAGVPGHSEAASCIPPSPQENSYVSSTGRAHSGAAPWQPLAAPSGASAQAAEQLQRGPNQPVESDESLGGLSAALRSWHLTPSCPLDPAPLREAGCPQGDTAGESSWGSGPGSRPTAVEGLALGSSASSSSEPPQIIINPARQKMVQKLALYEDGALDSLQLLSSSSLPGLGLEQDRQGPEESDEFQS
T5 sequence (Q9Y243 whole entry): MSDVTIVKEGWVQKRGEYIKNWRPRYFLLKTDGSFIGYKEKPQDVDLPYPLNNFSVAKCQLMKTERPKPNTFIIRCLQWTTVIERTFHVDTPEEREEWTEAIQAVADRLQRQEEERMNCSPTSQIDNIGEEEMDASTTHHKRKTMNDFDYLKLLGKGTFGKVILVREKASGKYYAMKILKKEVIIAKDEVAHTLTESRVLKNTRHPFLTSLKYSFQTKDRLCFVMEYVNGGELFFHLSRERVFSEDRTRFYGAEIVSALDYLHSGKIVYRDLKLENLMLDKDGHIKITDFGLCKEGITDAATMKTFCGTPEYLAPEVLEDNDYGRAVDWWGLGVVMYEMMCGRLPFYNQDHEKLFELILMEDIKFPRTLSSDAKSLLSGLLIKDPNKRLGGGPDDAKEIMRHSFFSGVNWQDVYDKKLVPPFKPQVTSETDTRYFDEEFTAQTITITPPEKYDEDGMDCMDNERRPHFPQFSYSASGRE
T2 sequence (Q04912 25-1400): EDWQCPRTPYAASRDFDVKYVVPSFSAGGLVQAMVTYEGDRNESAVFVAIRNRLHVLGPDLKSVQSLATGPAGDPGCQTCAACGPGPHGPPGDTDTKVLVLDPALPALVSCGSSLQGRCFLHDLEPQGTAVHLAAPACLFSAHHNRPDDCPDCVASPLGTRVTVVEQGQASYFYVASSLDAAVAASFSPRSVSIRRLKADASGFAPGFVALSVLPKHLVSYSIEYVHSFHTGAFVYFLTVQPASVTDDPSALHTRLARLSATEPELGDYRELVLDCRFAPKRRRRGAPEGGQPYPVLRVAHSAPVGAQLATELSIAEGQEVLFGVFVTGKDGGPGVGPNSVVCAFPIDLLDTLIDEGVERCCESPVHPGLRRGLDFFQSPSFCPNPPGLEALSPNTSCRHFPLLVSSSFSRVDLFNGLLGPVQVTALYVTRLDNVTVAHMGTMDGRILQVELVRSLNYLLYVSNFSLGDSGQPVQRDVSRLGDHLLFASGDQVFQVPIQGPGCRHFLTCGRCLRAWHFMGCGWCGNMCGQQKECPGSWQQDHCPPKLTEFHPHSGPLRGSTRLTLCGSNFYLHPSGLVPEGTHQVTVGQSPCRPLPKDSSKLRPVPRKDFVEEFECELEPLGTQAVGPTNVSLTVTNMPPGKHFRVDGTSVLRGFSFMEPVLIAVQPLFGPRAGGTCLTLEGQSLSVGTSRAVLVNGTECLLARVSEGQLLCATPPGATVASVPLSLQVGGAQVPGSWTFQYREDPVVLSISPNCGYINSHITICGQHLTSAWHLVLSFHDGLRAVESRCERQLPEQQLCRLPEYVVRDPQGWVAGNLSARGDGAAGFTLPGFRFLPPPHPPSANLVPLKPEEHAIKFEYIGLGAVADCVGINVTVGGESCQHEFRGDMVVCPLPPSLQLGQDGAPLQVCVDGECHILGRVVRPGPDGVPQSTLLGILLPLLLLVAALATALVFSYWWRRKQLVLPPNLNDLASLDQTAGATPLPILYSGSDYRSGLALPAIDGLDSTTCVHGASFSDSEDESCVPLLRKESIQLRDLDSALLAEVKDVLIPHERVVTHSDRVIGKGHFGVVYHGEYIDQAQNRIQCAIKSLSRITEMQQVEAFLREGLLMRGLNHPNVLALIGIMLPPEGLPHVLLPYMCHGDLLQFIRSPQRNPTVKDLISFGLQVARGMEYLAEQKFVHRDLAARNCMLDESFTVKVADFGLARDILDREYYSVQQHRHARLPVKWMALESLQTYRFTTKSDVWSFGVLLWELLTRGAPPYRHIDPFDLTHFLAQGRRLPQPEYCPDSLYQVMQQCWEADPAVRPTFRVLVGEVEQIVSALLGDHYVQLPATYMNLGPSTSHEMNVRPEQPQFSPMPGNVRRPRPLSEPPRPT
T6 sequence (P53779 whole entry): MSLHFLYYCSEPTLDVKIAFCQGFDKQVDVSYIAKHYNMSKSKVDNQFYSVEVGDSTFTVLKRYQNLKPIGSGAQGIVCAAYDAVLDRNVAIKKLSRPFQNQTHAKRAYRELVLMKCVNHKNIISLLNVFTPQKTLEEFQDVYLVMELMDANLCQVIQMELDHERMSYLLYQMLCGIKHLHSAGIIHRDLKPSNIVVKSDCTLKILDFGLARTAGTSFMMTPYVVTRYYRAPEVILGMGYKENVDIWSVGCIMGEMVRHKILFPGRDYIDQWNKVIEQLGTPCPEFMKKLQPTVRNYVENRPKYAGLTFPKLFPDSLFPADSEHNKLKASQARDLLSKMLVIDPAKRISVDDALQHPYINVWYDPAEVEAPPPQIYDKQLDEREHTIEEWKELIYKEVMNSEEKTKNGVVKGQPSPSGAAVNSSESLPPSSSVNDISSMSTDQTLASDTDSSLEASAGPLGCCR

`O=c1[nH]ccc2cc(F)c(NS(=O)(=O)c3ccc(N4CC[C@@H](O)C4)s3)cc12` [LSN3213128, N-(6-Fluoro-1-oxo-1,2-dihydroisoquinolin-7-yl)-5-[(3R)-3-hydroxypyrrolidin-1-yl]thiophene-2-sulfonamide] was tested, and the inhibition at 0.2 µM (NEK2; @ 0.2 uM) was -9.52%, the inhibition at 2 µM (NEK2; @ 2 uM) was 5.24% and the inhibition at 20 µM (NEK2; @ 20 uM) was -6.75%. It also gave an inhibition at 0.2 µM (RON; @ 0.2 uM) of -17.2%, an inhibition at 2 µM (RON; @ 2 uM) of -11.8% and an inhibition at 20 µM (RON; @ 20 uM) of 33.9%. For the same compound, the “anti-proliferative effects on hypoxanthine supplementation” value (NCI-H460 (lung); 32 μM hypoxanthine) was “completely rescued”, the GI50 (NCI-H460 (lung); RPMI media, read-out: Alamar Blue GI50 Regular folate) was 3470 ± 2090 nM and the GI50 (NCI-H460 (lung); low folate RPMI media, read-out: Alamar Blue GI50 Low folate) was 16.4 ± 5.1 nM. For the same compound, the inhibition at 0.2 µM (RSK1; @ 0.2 uM) was 0.638%, the inhibition at 2 µM (RSK1; @ 2 uM) was 8.18% and the inhibition at 20 µM (RSK1; @ 20 uM) was 11.4%. For the same compound, the inhibition at 0.2 µM (IRAK1; @ 0.2 uM) was -0.781%, the inhibition at 2 µM (IRAK1; @ 2 uM) was 4.26% and the inhibition at 20 µM (IRAK1; @ 20 uM) was 42.2%. For the same compound, the “% Inhibition” value (AMPKA; @ 0.2 uM) was -3.69 (26.6, n=2) %, the “% Inhibition” value (AMPKA; @ 2 uM) was 9.14 (16.7, n=2) % and the “% Inhibition” value (AMPKA; @ 20 uM) was 9.08 (3.34, n=2) %. It also gave an inhibition at 0.2 µM (AKT3; @ 0.2 uM) of -0.699%, an inhibition at 2 µM (AKT3; @ 2 uM) of 5.67% and an inhibition at 20 µM (AKT3; @ 20 uM) of 13%. The inhibition at 0.2 µM (JNK3; @ 0.2 uM) was -0.752%, the inhibition at 2 µM (JNK3; @ 2 uM) was 19.2% and the inhibition at 20 µM (JNK3; @ 20 uM) was 76.2%. For the same compound, the “P70S6K T389 phosphorylation” value [1] was “showed no change” and the “AMPK T172 phosphorylation levels in vivo” value [2] was “remained elevated”.
